Measurements published in article PMC9499324, “Glycyrrhizic Acid Derivatives Bearing Amino Acid Residues in the Carbohydrate Part as Dengue Virus E Protein Inhibitors: Synthesis and Antiviral Activity” (International Journal of Molecular Sciences, 2022).

Tests used:
DENV2 [1] = assay: DENV2-induced cytopathic effect (CPE) reduction screening in Vero E6 cells; assay type: cell-based, Dengue virus type 2; conditions: for inhibition at 10 µM: Dengue virus
Method: (§1) In the antiviral screening assay, each tested GL conjugate at 10 μM was used to survey the anti-DENV activity in Vero E6 cells using cytopathic effect (CPE) and infectivity reduction assays as described in our prior report. In CPE and infectivity reduction assays, Vero E6 cells were infected by DENV2 at an MOI of 0.005 and simultaneously treated 10 μM of indicated GL conjugate for 96 h, and then photographed by microscope for examining the levels of DENV2-induced CPE in infected cells treated with or without GL conjugate. Meanwhile, the cells were further performed using immunofluorescence assay (IFA) with anti-DENV NS4B antibodies (GeneTex, Inc., Hsinchu, Taiwan) and anti-rabbit IgG antibodies conjugated with AF555 (ThermoFisher, Waltham, MA, USA) plus DAPI (4′,6-diamidino-2-phenylindole) nuclear staining. Finally, the DENV-2 infectivity was measured according to the ratio of DENV NS4B-positive cells to DAPI-stained cells in the well of mock-treated or treated cells, as described in [45, 59, 60].

DENV2 [2] = assay: DENV2 infectivity inhibition (anti-NS4B immunofluorescence) in Vero E6 cells; assay type: cell-based, Dengue virus type 2; conditions: for inhibition at 10 µM: Vero C1008, 10 μM compound, DENV2, Vero E6 cells, 96 h, read-out: Inhibition (%) at 10 μM (reduction of NS4B-positive cells); for Selectivity Index (CC50/ IC50): DENV2
Excerpt: as §1, with “In the antiviral screening assay, each tested GL conjugate at 10 μM was used to survey the anti-DENV activity in Vero E6 cells using cytopathic effect (CPE) and infectivity reduction assays as described in our prior report.” left out, “[…],” for “Vero E6 cells were infected by DENV2 at an MOI of 0.005 and simultaneously treated 10 μM of indicated GL conjugate for 96 h,”

[3] = MTT cytotoxicity assay in Vero E6 cells; assay type: cell-based; conditions: African green monkey
Method: (§2) Vero E6 cells and A549 cells (5 × 10^3 cells/well) were treated with the serial dilution of GL conjugates at 0, 0.1, 10, 20, and 50 μM for examining the in vitro cytotoxicity of tested compounds. After 96-h incubation at 37 °C, the cells were incubated with MTT (3-(4,5-Dimethylthiazol-2-yl)-2,5-Diphenyltetrazolium Bromide) solution for another 4 h incubation, mixed with DMSO for 15 min after the removal of media, and then measured the absorbance at 570 nm. The viability (%) of treated cells was quantified according to the reduced ability of MTT. Finally, the concentration for reducing 50% cell viability (the 50% cytotoxic concentration, CC50) was determined by regression analysis of the concentration–response survival curve.

[4] = design: method as in earlier work; conditions: mammals; cited from earlier work
[5] = MTT cytotoxicity assay in A549 cells; assay type: cell-based; conditions: human
Method: as §2

DENV2 [6] = assay: DENV2 infectivity inhibition (anti-NS4B immunofluorescence) in A549 cells; assay type: cell-based, Dengue virus type 2
DENV1 = DENV1 infectivity inhibition assay in Vero E6 cells; assay type: cell-based; conditions: Dengue virus, DENV1, Vero C1008, read-out: IC50 in the DENV1 infectivity inhibition assay
Method: as §1
Supplemental Figure S25. Infectivity inhbition of DENV1 in Vero E6 cells by active GL conjugates. Cells were infected with DENV1 in the presence and absence of Compounds 3, 6, 11, and 21 at the concentrations of 0.1, 1, and 10 μM, respectively. Treated/infected Vero E6 cells were also analyzed using immunofluorescence staining with anti-DENV2 NS4B antibodies.
Residual infectivity was discovered by the ratio of DENV2 NS4B positive cells to total cells stained with DAPI, and relative inhibition activity was determined based on full infectivity with the subtraction of its residual infectivity.
(1 picture or pasted object on this page, not shown here)

DENV2 [7] = assay: Time-of-addition/compound removal assay with DENV2 in Vero E6 cells; assay type: cell-based, Dengue virus type 2; conditions: time-of-addition/removal, Vero E6 cells
Method: Figure 5 Time-of-addition and removal assay for analyzing antiviral action of compounds 3 (A), 6 (B), 11 (C), and 21 (D) in Vero E6 cells. In the attachment mode, cells were pre-cooled and incubated with fresh-prepared mixtures of active compounds with DENV2 at 4 °C for 1 h. After the removal of the mixtures, the cells were kept at 37 °C for 96 h (a cycle of viral replication) and then were performed by immunofluorescent assay plus DAPI staining. In entry and post-entry modes, cells were infected with DENV2 and treated with the compounds simultaneously (the entry stage) or 1-h post-infection (post-entry stage). After a 1 h incubation period, the virus/compound mixture was removed; the cell monolayer was washed with PBS and cultured for 96 h and then subjected to immunofluorescence staining and DAPI. Finally, the inhibition percentage of DENV2 infectivity was calculated as follows: 1-(percentage of NS4B positivity in treated cells/percentage of NS4B positivity in mock-treated cells). *** p < 0.001 compared with the other two antiviral action modes.
The time-of-addition assays consisted of three modes including attachment treatment/removal, entry-treatment/removal, and post-entry treatment/removal modes. In the attachment-treatment/removal mode, Vero E6 cells monolayer in 6-well plate was placed at 4 °C for 2 h and incubated with the fresh-prepared mixture of DENV-2 (MOI = 0.005) with the active compound at indicated concentrations for 2 h at 4 °C, and then washed with phosphate-buffered saline (PBS). In the entry-treatment/removal mode, Vero E6 cells were simultaneously treated with the active compound and infected DENV-2 (MOI = 0.005) in 6-well plates, incubated for 1 h at 37 °C, and then washed with PBS. In the post-entry treatment/removal mode, the cells were infected with DENV-2 for 1 h at 37 °C, treated with the active compounds at indicated concentrations for 1 h at 37 °C, respectively, and then washed by PBS. After active compound removal (washout), the cells were incubated at 37 °C for 96 h, and then were analyzed by immunofluorescent and DAPI staining assay for determining the residual DENV-2 infectivity, as described above. The inhibitory activity of the transient treatment by active compounds on attachment, entry, and post-entry stages of DENV replication in vitro was determined based on the residual infectivity.

DENV1 and DENV2 = assay: DENV infectivity inhibition, summary over DENV1 and DENV2 in Vero E6 and A549 cells; assay type: cell-based, Dengue virus; conditions: Dengue virus, range over DENV1 and DENV2, Vero E6 and A549 cells; read-out: IC50 in DENV infectivity (range over assays)
Excerpt: as §1, with “In the antiviral screening assay, each tested GL conjugate at 10 μM was used to survey the anti-DENV activity in Vero E6 cells using cytopathic effect (CPE) and infectivity reduction assays as described in our prior report.” left out, “[…],” for “Vero E6 cells were infected by DENV2 at an MOI of 0.005 and simultaneously treated 10 μM of indicated GL conjugate for 96 h,”

[8] = Vero C1008, 10 μM compound, DENV2, Vero E6 cells, 96 h, read-out: CPE Reduction at 10 μM
[9] = 10 μM compound, DENV2, Vero E6 cells, 96 h

CC1(C)[C@@H](O[C@H]2O[C@H](C(=O)O)[C@@H](O)[C@H](O)[C@H]2O[C@@H]2O[C@H](C(=O)O)[C@@H](O)[C@H](O)[C@H]2O)CC[C@]2(C)[C@H]3C(=O)C=C4[C@@H]5C[C@@](C)(C(=O)O)CC[C@]5(C)CC[C@@]4(C)[C@]3(C)CC[C@@H]12 [Compound 1, Glycyrrhizic acid]
inhibition at 10 µM (DENV2 [1]; [8]): 50 to 75%
IC50 (DENV2 [2]; Dengue virus, DENV2, Vero C1008, Vero E6 cells, read-out: Inhibition of DENV2 Infectivity (IC50)): 8.1 ± 0.21 µM
inhibition at 10 µM (DENV2 [2]; Dengue virus): 70.5%
Selectivity Index (CC50/ IC50) (DENV2 [2]; Vero E6 cells): >12.3
CC50 at 96 h [3]: > 100 µM
LD50 [4]: 5000 mg/kg

COC(=O)[C@@H](NC(=O)[C@H]1O[C@@H](O[C@H]2[C@H](OC3CC[C@@]4(C)C(CC[C@]5(C)C4C(=O)C=C4C6C[C@@](C)(C(=O)O)CC[C@]6(C)CC[C@]45C)C3(C)C)O[C@H](C(=O)N[C@H](C(=O)OC)C(C)C)[C@@H](O)[C@@H]2O)[C@H](O)[C@@H](O)[C@@H]1O)C(C)C (stereo partly drawn) [Compound 2, 3-O-{2-O-[N-(β-D-Glucopyranosyluronoyl)-L-valinemethyl ester]-N-(β-D-glucopyranosyluronoyl)-L-valinemethyl ester}-(3β, 20β)-11-oxo-30-norolean-12-ene-30-oic Acid]
CPE Reduction at 10 μM (DENV2 [1]; [9]): −

CC[C@H](C)[C@H](NC(=O)[C@H]1O[C@@H](O[C@H]2[C@H](OC3CC[C@@]4(C)C(CC[C@]5(C)C4C(=O)C=C4C6C[C@@](C)(C(=O)O)CC[C@]6(C)CC[C@]45C)C3(C)C)O[C@H](C(=O)N[C@H](C(=O)OC)[C@@H](C)CC)[C@@H](O)[C@@H]2O)[C@H](O)[C@@H](O)[C@@H]1O)C(=O)OC (stereo partly drawn) [Compound 4, 3-O-{2-O-[N-(β-D-Glucopyranosyluronoyl)-L-isoleucinemethyl ester]-N-(β-D-glucopyranosyluronoyl)-L-isoleucinemethyl ester}-(3β, 20β)-11-oxo-30-norolean-12-ene-30-oic Acid]
CPE Reduction at 10 μM (DENV2 [1]; [9]): −

COC(=O)[C@H](Cc1ccc(O)cc1)NC(=O)[C@H]1O[C@@H](O[C@H]2[C@H](OC3CC[C@@]4(C)C(CC[C@]5(C)C4C(=O)C=C4C6C[C@@](C)(C(=O)O)CC[C@]6(C)CC[C@]45C)C3(C)C)O[C@H](C(=O)N[C@@H](Cc3ccc(O)cc3)C(=O)OC)[C@@H](O)[C@@H]2O)[C@H](O)[C@@H](O)[C@@H]1O (stereo partly drawn) [Compound 6, 3-O-{2-O-[N-(β-D-glucopyranosyluronoyl)-L-tyrosinemethyl ester]-N-(β-D-glucopyranosyluronoyl)-L-tyrosinemethyl ester}-(3β,20β)-11-oxo-30-noroleane-12-ene-30-oic acid]
inhibition at 10 µM (DENV2 [1]; [8]): 75 to 100%
IC50 (DENV2 [2]; Dengue virus, DENV2, Vero C1008, read-out: Inhibition of DENV2 Infectivity (IC50, μM), Vero E6 cells): 6 µM
inhibition at 10 µM (DENV2 [2]; Dengue virus): 94%
Selectivity Index (CC50/ IC50) (DENV2 [2]; Vero E6 cells): >16.7
IC50 (DENV2 [2]; Vero E6 cells, read-out: Inhibition of DENV2 Infectivity (IC50)): 5.98 ± 0.41 µM
CC50 at 96 h [3]: > 100 µM
CC50 at 96 h [5]: > 100 µM
Selectivity Index (CC50/ IC50) (DENV2 [6]): >1000
IC50 (DENV2 [6]; Dengue virus): < 100 nM
IC50 (DENV1): < 100 nM
Stage of DENV2 replication affected (attachment, entry, post-entry modes) (DENV2 [7]): predominantly impeded the post-entry stage
IC50 (DENV1 and DENV2): 0.1 to 5.98 µM

COC(=O)[C@@H](Cc1ccc(O)cc1)NC(=O)[C@H]1O[C@@H](O[C@H]2[C@H](OC3CC[C@@]4(C)C(CC[C@]5(C)C4C(=O)C=C4C6C[C@@](C)(C(=O)O)CC[C@]6(C)CC[C@]45C)C3(C)C)O[C@H](C(=O)N[C@H](Cc3ccc(O)cc3)C(=O)OC)[C@@H](O)[C@@H]2O)[C@H](O)[C@@H](O)[C@@H]1O (stereo partly drawn) [Compound 7, 3-O-{2-O-[N-(β-D-Glucopyranosyluronoyl)-D-tyrosinemethyl ester]-N-(β-D-glucopyranosyluronoyl)-D-tyrosinemethyl ester}-(3β, 20β)-11-oxo-30-noroleane-12-ene-30-oic Acid]
inhibition at 10 µM (DENV2 [1]; DENV2, Vero C1008, read-out: CPE inhibition): 25 to 50%
inhibition at 10 µM (DENV2 [1]; [8]): 25 to 50%
inhibition at 10 µM (DENV2 [2]; Dengue virus): 51.7%

COC(=O)[C@H](CCSC)NC(=O)[C@H]1O[C@@H](O[C@H]2[C@H](OC3CC[C@@]4(C)C(CC[C@]5(C)C4C(=O)C=C4C6C[C@@](C)(C(=O)O)CC[C@]6(C)CC[C@]45C)C3(C)C)O[C@H](C(=O)N[C@@H](CCSC)C(=O)OC)[C@@H](O)[C@@H]2O)[C@H](O)[C@@H](O)[C@@H]1O (stereo partly drawn) [Compound 8, 3-O-{2-O-[N-(β-D-Glucopyranosyluronoyl)-L-methioninemethyl ester]-N-(β-D-glucopyranosyluronoyl)-L-methioninemethyl ester}-(3β, 20β)-11-oxo-30-noroleane-12-ene-30-oic Acid]
inhibition at 10 µM (DENV2 [1]; [8]): 25 to 50%
inhibition at 10 µM (DENV2 [2]; Dengue virus): 51.6%

CCOC(=O)CCNC(=O)[C@H]1O[C@@H](O[C@H]2[C@H](OC3CC[C@@]4(C)C(CC[C@]5(C)C4C(=O)C=C4C6C[C@@](C)(C(=O)O)CC[C@]6(C)CC[C@]45C)C3(C)C)O[C@H](C(=O)NCCC(=O)OCC)[C@@H](O)[C@@H]2O)[C@H](O)[C@@H](O)[C@@H]1O (stereo partly drawn) [Compound 15, 3-O-{2-O-[N-(β-D-Glucopyranosyluronoyl)-β-alanineethyl ester]-N-(β-D-glucopyranosyluronoyl)-β-alanineethyl ester}-(3β, 20β)-11-oxo-30-noroleane-12-ene-30-acid]
inhibition at 10 µM (DENV2 [1]; [8]): 25 to 50%
inhibition at 10 µM (DENV2 [2]; Dengue virus): 53.6%

CCOC(=O)[C@@H](Cc1ccccc1)NC(=O)CNC(=O)[C@H]1O[C@@H](O[C@H]2[C@H](OC3CC[C@@]4(C)C(CC[C@]5(C)C4C(=O)C=C4C6C[C@@](C)(C(=O)O)CC[C@]6(C)CC[C@]45C)C3(C)C)O[C@H](C(=O)NCC(=O)N[C@H](Cc3ccccc3)C(=O)OCC)[C@@H](O)[C@@H]2O)[C@H](O)[C@@H](O)[C@@H]1O (stereo partly drawn) [Compound 16, 3-O-{2-O-[N-(β-D-Glucopyranosyluronoyl)-glycyl-L-phenylalanineethyl ester]-N-(β-D-glucopyranosyluronoyl)-glycyl-L-phenylalanineethyl ester}-(3β,20β)-11-oxo-30-noroleane-12-ene-30-acid]
inhibition at 10 µM (DENV2 [1]; [8]): 50 to 75%
inhibition at 10 µM (DENV2 [2]; Dengue virus): 63.8%
